# Key:
# Experiment in all cases: KINOMEscan competition binding
# AAK1 (human) = AAK1 (human) (UniProt Q2M2I8); settings: compound 10.0 µM
# [1] = tested on: ABL1 (human), P00519 [E255K]; settings: compound 10.0 µM
# [2] = tested on: BRAF (human), P15056 [V600E]; settings: compound 10.0 µM
# CDK18 (human) = CDK18 (human) (UniProt Q07002); settings: compound 10.0 µM
# CDK3 (human) = CDK3 (human) (UniProt Q00526); settings: compound 10.0 µM
# CSNK1E (human) = CSNK1E (human) (UniProt P49674); settings: compound 10.0 µM
# DAPK2 (human) = DAPK2 (human) (UniProt Q9UIK4); settings: compound 10.0 µM
# DCLK1 (human) = DCLK1 (human) (UniProt O15075)
# DYRK1B (human) = DYRK1B (human) (UniProt Q9Y463); settings: compound 10.0 µM
# EPHA3 (human) = EPHA3 (human) (UniProt P29320); settings: compound 10.0 µM
# FER (human) = FER (human) (UniProt P16591); settings: compound 10.0 µM
# FLT4 (human) = FLT4 (human) (UniProt P35916); settings: compound 10.0 µM
# GSK3A (human) = GSK3A (human) (UniProt P49840); settings: compound 10.0 µM
# HCK (human) = HCK (human) (UniProt P08631); settings: compound 10.0 µM
# HIPK1 (human) = HIPK1 (human) (UniProt Q86Z02); settings: compound 10.0 µM
# INSR (human) = INSR (human) (UniProt P06213); settings: compound 10.0 µM
# [3] = tested on: KIT (human), P10721 [D816V]; settings: compound 10.0 µM
# MAP3K1 (human) = MAP3K1 (human) (UniProt Q13233); settings: compound 10.0 µM
# MAP3K13 (human) = MAP3K13 (human) (UniProt O43283); settings: compound 10.0 µM
# MAP3K3 (human) = MAP3K3 (human) (UniProt Q99759); settings: compound 10.0 µM
# MAP3K4 (human) = MAP3K4 (human) (UniProt Q9Y6R4); settings: compound 10.0 µM
# MAPK10 (human) = MAPK10 (human) (UniProt P53779); settings: compound 10.0 µM
# MYLK4 (human) = MYLK4 (human) (UniProt Q86YV6); settings: compound 10.0 µM
# NEK6 (human) = NEK6 (human) (UniProt Q9HC98); settings: compound 10.0 µM
# PIK3C2B (human) = PIK3C2B (human) (UniProt O00750); settings: compound 10.0 µM
# [4] = tested on: PIK3CA (human), P42336 [I800L]; settings: compound 10.0 µM
# PIK3CG (human) = PIK3CG (human) (UniProt P48736); settings: compound 10.0 µM
# PRKCE (human) = PRKCE (human) (UniProt Q02156); settings: compound 10.0 µM
# PRKG2 (human) = PRKG2 (human) (UniProt Q13237); settings: compound 10.0 µM
# PRPF4B (human) = PRPF4B (human) (UniProt Q13523); settings: compound 10.0 µM
# ROS1 (human) = ROS1 (human) (UniProt P08922); settings: compound 10.0 µM
# RPS6KA1 KD2 (human) = RPS6KA1 KD2 (human) (UniProt Q15418); settings: compound 10.0 µM
# RPS6KA4 KD2 (human) = RPS6KA4 KD2 (human) (UniProt O75676); settings: compound 10.0 µM
# SLK (human) = SLK (human) (UniProt Q9H2G2); settings: compound 10.0 µM
# SRPK3 (human) = SRPK3 (human) (UniProt Q9UPE1); settings: compound 10.0 µM
# STK10 (human) = STK10 (human) (UniProt O94804); settings: compound 10.0 µM
# STK38L (human) = STK38L (human) (UniProt Q9Y2H1); settings: compound 10.0 µM
# TAOK2 (human) = TAOK2 (human) (UniProt Q9UL54); settings: compound 10.0 µM
# TEC (human) = TEC (human) (UniProt P42680); settings: compound 10.0 µM
# TNIK (human) = TNIK (human) (UniProt Q9UKE5); settings: compound 10.0 µM
# ZAP70 (human) = ZAP70 (human) (UniProt P43403); settings: compound 10.0 µM
# Sequence of DCLK1 (human) (O15075 whole entry, looked up): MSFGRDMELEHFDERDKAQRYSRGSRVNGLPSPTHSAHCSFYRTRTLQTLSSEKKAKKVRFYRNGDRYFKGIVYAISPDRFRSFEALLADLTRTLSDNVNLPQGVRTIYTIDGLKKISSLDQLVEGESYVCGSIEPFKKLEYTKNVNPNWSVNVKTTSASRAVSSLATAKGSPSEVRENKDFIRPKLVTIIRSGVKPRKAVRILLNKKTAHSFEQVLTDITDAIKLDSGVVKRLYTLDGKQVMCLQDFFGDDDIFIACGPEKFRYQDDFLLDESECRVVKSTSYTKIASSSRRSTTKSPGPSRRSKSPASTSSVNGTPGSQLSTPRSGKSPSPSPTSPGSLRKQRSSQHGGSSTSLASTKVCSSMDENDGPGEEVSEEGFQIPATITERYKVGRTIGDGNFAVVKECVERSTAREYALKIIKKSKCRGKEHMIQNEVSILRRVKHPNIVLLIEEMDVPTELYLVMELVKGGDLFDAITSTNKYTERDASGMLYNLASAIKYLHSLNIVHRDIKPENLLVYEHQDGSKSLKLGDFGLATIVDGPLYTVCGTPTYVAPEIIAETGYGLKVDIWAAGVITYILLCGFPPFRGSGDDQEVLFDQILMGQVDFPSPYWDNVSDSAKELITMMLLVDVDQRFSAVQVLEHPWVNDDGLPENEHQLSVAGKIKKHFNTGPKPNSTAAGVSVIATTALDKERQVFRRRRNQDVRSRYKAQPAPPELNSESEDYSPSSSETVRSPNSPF
# Sequence of PIK3CG (human) (P48736 whole entry, looked up): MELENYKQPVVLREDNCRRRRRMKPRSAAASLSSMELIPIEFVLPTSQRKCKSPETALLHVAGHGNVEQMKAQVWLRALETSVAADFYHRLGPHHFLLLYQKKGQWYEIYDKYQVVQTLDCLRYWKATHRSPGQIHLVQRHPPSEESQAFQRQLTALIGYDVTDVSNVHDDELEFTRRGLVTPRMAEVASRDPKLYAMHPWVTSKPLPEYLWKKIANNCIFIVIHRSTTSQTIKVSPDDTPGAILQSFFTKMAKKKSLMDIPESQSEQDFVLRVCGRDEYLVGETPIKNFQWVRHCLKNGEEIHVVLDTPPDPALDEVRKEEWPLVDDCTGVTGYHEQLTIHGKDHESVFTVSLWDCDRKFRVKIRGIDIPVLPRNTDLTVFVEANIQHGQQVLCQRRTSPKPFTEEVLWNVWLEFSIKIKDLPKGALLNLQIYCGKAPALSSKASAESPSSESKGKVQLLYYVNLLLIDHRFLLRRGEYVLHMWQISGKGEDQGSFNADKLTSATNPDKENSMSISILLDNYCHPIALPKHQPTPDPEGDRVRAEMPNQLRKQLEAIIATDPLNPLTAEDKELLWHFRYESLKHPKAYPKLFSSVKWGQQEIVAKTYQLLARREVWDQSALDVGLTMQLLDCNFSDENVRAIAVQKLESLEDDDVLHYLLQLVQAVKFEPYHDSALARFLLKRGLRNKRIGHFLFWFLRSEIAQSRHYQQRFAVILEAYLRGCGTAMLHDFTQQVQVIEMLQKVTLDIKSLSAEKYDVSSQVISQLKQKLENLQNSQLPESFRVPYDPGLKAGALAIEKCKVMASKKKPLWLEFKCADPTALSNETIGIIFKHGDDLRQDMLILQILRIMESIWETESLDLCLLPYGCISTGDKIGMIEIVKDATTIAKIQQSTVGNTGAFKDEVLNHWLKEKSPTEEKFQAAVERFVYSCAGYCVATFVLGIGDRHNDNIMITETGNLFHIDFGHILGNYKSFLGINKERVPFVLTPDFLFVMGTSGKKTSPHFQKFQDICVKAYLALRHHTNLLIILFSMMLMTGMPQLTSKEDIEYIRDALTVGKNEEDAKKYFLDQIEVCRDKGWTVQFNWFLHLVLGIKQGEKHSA
# Sequence of TNIK (human) (Q9UKE5 whole entry, looked up): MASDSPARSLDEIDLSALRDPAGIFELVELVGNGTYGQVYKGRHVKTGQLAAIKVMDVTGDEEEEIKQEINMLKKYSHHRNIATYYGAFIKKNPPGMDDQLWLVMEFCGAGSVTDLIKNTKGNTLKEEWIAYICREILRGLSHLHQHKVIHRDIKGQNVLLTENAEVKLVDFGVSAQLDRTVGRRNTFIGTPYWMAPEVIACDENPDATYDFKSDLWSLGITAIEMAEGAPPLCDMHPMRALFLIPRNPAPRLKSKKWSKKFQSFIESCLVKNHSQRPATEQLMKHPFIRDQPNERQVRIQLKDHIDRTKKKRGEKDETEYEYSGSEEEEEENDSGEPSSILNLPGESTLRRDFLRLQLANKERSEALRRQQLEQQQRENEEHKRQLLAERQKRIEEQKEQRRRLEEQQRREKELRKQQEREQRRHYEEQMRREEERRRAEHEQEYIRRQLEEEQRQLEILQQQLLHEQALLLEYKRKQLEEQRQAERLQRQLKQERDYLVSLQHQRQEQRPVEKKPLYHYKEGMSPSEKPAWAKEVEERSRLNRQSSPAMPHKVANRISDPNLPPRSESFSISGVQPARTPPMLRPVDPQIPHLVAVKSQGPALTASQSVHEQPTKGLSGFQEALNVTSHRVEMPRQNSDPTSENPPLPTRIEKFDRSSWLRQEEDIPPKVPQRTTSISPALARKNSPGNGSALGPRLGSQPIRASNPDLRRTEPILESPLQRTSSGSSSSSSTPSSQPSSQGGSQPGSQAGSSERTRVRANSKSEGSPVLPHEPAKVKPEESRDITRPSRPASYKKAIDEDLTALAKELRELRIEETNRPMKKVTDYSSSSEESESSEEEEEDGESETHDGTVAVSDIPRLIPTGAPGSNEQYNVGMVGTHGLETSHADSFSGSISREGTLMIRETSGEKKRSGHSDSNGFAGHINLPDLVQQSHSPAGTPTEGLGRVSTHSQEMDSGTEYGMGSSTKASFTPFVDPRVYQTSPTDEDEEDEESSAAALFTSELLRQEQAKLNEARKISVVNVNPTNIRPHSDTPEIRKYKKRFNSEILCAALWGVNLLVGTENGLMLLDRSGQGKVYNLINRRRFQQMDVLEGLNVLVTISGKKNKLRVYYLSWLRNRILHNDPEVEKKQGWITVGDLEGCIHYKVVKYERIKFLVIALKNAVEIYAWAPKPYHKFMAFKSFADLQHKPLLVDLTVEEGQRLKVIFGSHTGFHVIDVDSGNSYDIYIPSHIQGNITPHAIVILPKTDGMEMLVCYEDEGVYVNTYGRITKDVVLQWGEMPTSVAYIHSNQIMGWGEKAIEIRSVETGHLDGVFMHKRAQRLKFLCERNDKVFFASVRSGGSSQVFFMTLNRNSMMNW
# Sequence of CDK18 (human) (Q07002 whole entry, looked up): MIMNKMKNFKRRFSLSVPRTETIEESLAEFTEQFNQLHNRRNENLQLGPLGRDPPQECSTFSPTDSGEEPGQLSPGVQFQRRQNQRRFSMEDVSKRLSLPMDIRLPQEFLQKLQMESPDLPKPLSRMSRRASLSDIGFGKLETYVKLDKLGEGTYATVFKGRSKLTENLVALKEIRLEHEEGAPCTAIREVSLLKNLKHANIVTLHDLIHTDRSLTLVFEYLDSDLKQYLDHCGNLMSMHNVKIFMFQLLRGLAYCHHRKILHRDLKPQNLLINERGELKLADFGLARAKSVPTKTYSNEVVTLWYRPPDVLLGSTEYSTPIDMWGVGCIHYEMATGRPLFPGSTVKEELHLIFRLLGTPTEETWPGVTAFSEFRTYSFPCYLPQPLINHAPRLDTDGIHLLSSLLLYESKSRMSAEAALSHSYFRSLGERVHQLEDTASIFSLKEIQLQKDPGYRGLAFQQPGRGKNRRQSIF
# Sequence of MYLK4 (human) (Q86YV6 whole entry, looked up): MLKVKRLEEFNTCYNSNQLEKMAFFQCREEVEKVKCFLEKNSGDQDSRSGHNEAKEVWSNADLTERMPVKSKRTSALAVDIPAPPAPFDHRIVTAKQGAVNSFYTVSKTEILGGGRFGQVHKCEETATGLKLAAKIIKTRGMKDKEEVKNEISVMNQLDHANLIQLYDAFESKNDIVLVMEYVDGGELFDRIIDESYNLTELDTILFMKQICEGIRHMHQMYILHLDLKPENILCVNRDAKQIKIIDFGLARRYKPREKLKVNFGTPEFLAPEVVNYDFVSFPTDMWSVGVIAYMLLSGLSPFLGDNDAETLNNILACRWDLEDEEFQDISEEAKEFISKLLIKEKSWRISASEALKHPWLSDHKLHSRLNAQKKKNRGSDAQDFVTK
# Sequence of TEC (human) (P42680 whole entry, looked up): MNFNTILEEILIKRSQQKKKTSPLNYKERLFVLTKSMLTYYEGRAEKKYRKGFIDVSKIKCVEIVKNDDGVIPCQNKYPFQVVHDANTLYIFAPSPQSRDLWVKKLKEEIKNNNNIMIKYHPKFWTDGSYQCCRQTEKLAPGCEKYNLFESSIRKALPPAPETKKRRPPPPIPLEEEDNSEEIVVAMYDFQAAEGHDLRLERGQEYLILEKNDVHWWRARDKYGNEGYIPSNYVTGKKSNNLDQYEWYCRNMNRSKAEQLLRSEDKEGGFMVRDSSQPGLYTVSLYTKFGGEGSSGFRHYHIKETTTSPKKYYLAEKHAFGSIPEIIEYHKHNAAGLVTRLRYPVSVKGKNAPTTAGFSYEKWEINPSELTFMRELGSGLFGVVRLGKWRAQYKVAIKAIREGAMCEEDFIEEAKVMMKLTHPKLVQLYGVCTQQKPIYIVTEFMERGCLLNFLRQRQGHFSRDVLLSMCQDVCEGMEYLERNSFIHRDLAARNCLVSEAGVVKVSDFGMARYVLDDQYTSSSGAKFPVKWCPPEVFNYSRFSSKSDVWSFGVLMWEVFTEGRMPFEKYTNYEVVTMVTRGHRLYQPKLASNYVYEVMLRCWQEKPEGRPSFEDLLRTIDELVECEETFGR
# Sequence of DAPK2 (human) (Q9UIK4 whole entry, looked up): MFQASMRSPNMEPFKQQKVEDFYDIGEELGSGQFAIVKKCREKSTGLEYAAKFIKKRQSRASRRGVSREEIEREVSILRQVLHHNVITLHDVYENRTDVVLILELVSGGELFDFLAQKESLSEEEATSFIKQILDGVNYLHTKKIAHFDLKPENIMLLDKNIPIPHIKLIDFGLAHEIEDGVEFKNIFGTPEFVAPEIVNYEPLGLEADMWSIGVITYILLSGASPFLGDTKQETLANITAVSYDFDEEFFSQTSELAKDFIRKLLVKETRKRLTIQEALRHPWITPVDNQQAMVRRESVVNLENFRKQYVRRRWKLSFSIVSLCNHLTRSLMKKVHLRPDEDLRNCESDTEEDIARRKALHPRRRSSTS
compound,measurement,setting,value
COc1cc(C(=O)N2CCC(N3CCN(C)CC3)CC2)ccc1Nc1ncc2c(n1)N(C)c1ccccc1C(=O)N2C,"kinase still bound, per cent of control",AAK1 (human),84%
same,"kinase still bound, per cent of control",[1],80%
same,"kinase still bound, per cent of control",[2],100%
same,residual activity,CDK18 (human),100%
same,residual activity,CDK3 (human),100%
same,"kinase still bound, per cent of control",CSNK1E (human),95%
same,"kinase still bound, per cent of control",DAPK2 (human),67%
same,Kd,DCLK1 (human),5 nM
same,"kinase still bound, per cent of control",DCLK1 (human); compound 10.0 µM,4.2%
same,"kinase still bound, per cent of control",DYRK1B (human),94%
same,"kinase still bound, per cent of control",EPHA3 (human),100%
same,"kinase still bound, per cent of control",FER (human),51%
same,"kinase still bound, per cent of control",FLT4 (human),100%
same,"kinase still bound, per cent of control",GSK3A (human),100%
same,"kinase still bound, per cent of control",HCK (human),100%
same,"kinase still bound, per cent of control",HIPK1 (human),100%
same,"kinase still bound, per cent of control",INSR (human),84%
same,"kinase still bound, per cent of control",[3],72%
same,"kinase still bound, per cent of control",MAP3K1 (human),95%
same,"kinase still bound, per cent of control",MAP3K13 (human),100%
same,"kinase still bound, per cent of control",MAP3K3 (human),97%
same,"kinase still bound, per cent of control",MAP3K4 (human),100%
same,"kinase still bound, per cent of control",MAPK10 (human),77%
same,"kinase still bound, per cent of control",MYLK4 (human),80%
same,"kinase still bound, per cent of control",NEK6 (human),76%
same,"kinase still bound, per cent of control",PIK3C2B (human),100%
same,"kinase still bound, per cent of control",[4],38%
same,"kinase still bound, per cent of control",PIK3CG (human),15%
same,"kinase still bound, per cent of control",PRKCE (human),100%
same,"kinase still bound, per cent of control",PRKG2 (human),74%
same,"kinase still bound, per cent of control",PRPF4B (human),93%
same,"kinase still bound, per cent of control",ROS1 (human),12%
same,"kinase still bound, per cent of control",RPS6KA1 KD2 (human),10%
same,"kinase still bound, per cent of control",RPS6KA4 KD2 (human),46%
same,"kinase still bound, per cent of control",SLK (human),100%
same,"kinase still bound, per cent of control",SRPK3 (human),72%
same,"kinase still bound, per cent of control",STK10 (human),100%
same,"kinase still bound, per cent of control",STK38L (human),100%
same,"kinase still bound, per cent of control",TAOK2 (human),65%
same,"kinase still bound, per cent of control",TEC (human),100%
same,"kinase still bound, per cent of control",TNIK (human),100%
same,"kinase still bound, per cent of control",ZAP70 (human),79%
